From publication PMC10675597, “Design, Synthesis, and Antisickling Investigation of a Thiazolidine Prodrug of TD-7 That Prolongs the Duration of Action of Antisickling Aromatic Aldehyde” (Pharmaceutics, 2023)

How the values were obtained:
[1] = In-vivo pharmacokinetic study in rat; set-up: species or system male Sprague Dawley rats
Experimental: Investigations were carried out to examine the pharmacokinetic profiles of Pro-7, including the enteric-coated microspheres and the intravenous (IV) formulation using a one-period parallel design. The study design and conduct adhered to ethical guidelines and regulatory standards to ensure the welfare of the animals. The study was also conducted in strict adherence to internationally recognized guidelines for ethical research and regulatory standards. The principles of Good Clinical Practice (GCP), the guidelines set forth by the International Conference on Harmonization (ICH), and the rigorous standards of the European Medicines Agency (EMA) served as the framework for the study’s execution. The protocol for the animal study underwent a thorough evaluation and received formal approval from the Research Ethics Committee at the Faculty of Pharmacy, King Abdulaziz University, Saudi Arabia.
Male Sprague Dawley rats, each with an average weight of 250 g were housed in a controlled facility with a 12-h light/dark cycle, at constant temperature of 25 °C, with continuous access to both food and water throughout the study. All animals were acclimated to standard housing for at least 7 days. The animals were separated into distinct groups (n = 5). Group I was treated with a single PO (50 mg/kg body weight) dose, while Group II was administered a single IV (25 mg/kg body weight) dose of Pro-7. Additional three control groups were included to validate and enhance the robustness of our findings. These include a normal control group without treatment, a control IV administration group that was administered non-medicated SNEDDS formulation, and a control oral administration group that was given non-medicated oral formulation.
The oral formulation was suspended in 1% aqueous carboxymethyl cellulose. Blood samples from the jugular vein, at 0.25 (for IV only), 0.5, 2, 4, 8, 10, 12, and 24 h were collected into EDTA tubes. To determine the concentration of TD-7 in the whole blood, aliquots (45 µL) of blood samples were mixed with 20 µL of warfarin (used as IS) in a concentration of 1 µg/mL and 500 µL of 1% formic acid in acetonitrile. The vials were centrifuged for 5 min at 10,000 rpm, and 2 µL of the resulting solution was analyzed by LC-MS/MS.
The concentration of both TD-7 and Pro-7 in the collected blood samples were quantified using LC–MS/MS method utilizing LLS/DMPK/005 Shimadzu-8045 LC-MS/MS instrument equipped with Lab solution 6.8 software. Linearity of the TD-7 and Pro-7 assay methods was verified within the concentration range 8.21–3776 and 20.4–9396 ng/mL, respectively. A regression coefficient (R^2) of more than 0.993 was obtained. The analytical method was validated in accordance with the FDA Bio-analytical Method Validation Guidelines 2003. Chromatographic separation was conducted on Atlantis C18 (4.6 × 50 mm, 3.5 µm) at 30 °C. The injection volume was 2 µL, the flow rate was adjusted at 0.7 mL/min, the total run time was 2.5 min, and the mobile phase consisted of 0.1% formic acid in acetonitrile:10 mM aqueous ammonium formate (70:30 v/v). The retention times for TD-7, Pro-7 and IS were 1.047, 1.178, and 1.503 min, respectively. The limit of quantification for TD-7 and Pro-7 was established at of 8.21 and 20.4, respectively.
Pharmacokinetic parameters were calculated using non-compartmental analysis with Kinetica TM (version 4, Thermo Electron Corporation, Waltham, MA, USA) software. The following parameters were determined: Maximum plasma concentration (Cmax), Elimination half-life (t½), Area under the plasma concentration-time curve from time 0 to the last measurable concentration (AUC0–t), Area under the plasma concentration-time curve from time 0 to infinity (AUC0–∞), Clearance (Cl), and Volume of distribution (Vd).
The t½ was determined as 0.693 divided by the elimination rate constant. […]

[2] = Drug solubility in SNEDDS formulation; assay type: physicochemical; conditions: SNEDDS (oleic acid 15%, tween 80 10%, PEG 400 75%), 25 °C, 48 h
Experimental: To determine the drug solubility in the prepared SNEDDS formulation, excess amount (approximately 300 mg) of Pro-7 was added to 4 mL of the prepared SNEDDS. The mixture was vortex and kept in a shaking water bath at 25 °C for 48 h, and then filtered using Acrodisc® syringe filter ([…]) and the concentration of Pro-7 determined spectrophotometrically at 296 nm.

[3] = Solubility study of Pro-7 in solvents; assay type: physicochemical; conditions: 25 °C, 48 h
Experimental: The solubility of Pro-7 was tested in water, ethanol, methanol, dichloromethane, chloroform, and acetone. An excess amount of the Pro-7 was added to a known volume of each solvent in a screw cap vial. Each vial was kept in a shaking water bath at 25 °C for 48 h. The content of each vial was filtered using an Acrodisc® syringe filter of […] (Port Washington, NY, USA), and the concentration of Pro-7 determined spectrophotometrically at 296 nm.

sickling = tested on: sickling; set-up: method as in PMID 30289405; conditions: cited from earlier work
[4] = intravenous 25 mg/kg Pro-7, rat, blood, n = 5
[5] = intravenous 25 mg/kg Pro-7, rat, n = 5
[6] = oral 50 mg/kg Pro-7 (enteric-coated formulation), rat, blood, n = 5
[7] = oral 50 mg/kg Pro-7 (enteric-coated formulation), rat, n = 5

**Q.** With “1-(2-(3-((6-(hydroxymethyl)pyridin-2-yl)methoxy)-5 methoxyphenyl)thiazolidin-4-yl)propan-1-one [Pro-7]” as the molecule, how does the “AUC0–t” value [1, 4] read?
**A.** Its value is 1830 ± 737 ng·h/mL.

**Q.** And the “AUC0–∞” value [1, 4]?
**A.** The value was 1956 ± 792 ng·h/mL.

**Q.** And the Cmax [1, 4]?
**A.** The Cmax was 1426 ± 926 ng/mL.

**Q.** What about the t½ [1, 4] of the same molecule?
**A.** Its t½ is 4.98 ± 1.89 h.

**Q.** And the Cl [1, 5]?
**A.** Its Cl is 238 ± 85.9 mL/min/kg.

**Q.** And the Vd [1, 5]?
**A.** Its Vd is 98.9 ± 45.3 L/kg.

**Q.** And the “AUC0–t” value [1, 6]?
**A.** Its value is 672 ± 255 ng·h/mL.

**Q.** And the “AUC0–∞” value [1, 6]?
**A.** Its value is 730 ± 225 ng·h/mL.

**Q.** What about the Cmax [1, 6] of the same molecule?
**A.** Its Cmax is 469 ± 322 ng/mL.

**Q.** And the Tmax [1, 6]?
**A.** The Tmax was 0.5 ± 0.0 h.

**Q.** What about the t½ [1, 6] of the same molecule?
**A.** Its t½ is 4.73 ± 1.22 h.

**Q.** And the Cl [1, 7]?
**A.** Its Cl is 200.89 ± 34.3 mL/min/kg.

**Q.** And the Vd [1, 7]?
**A.** Its Vd is 83.7 ± 22.1 L/kg.

**Q.** What about the “Fraction of drug absorbed (% F)” value ([1]; oral 50 mg/kg vs intravenous 25 mg/kg, rat) of the same molecule?
**A.** The value was 18.4%.

**Q.** And the “solubility in the prepared SNEDDS formulation” value [2]?
**A.** The value was 68.94 mg/mL.

**Q.** What about the solubility ([3]; acetone) of the same molecule?
**A.** The solubility was 11.64 mg/mL.

**Q.** And the solubility ([3]; chloroform)?
**A.** The solubility was 66.43 mg/mL.

**Q.** And the solubility ([3]; dichloromethane)?
**A.** The solubility was 54.89 mg/mL.

**Q.** And the solubility ([3]; ethanol)?
**A.** Its solubility is 85.98 mg/mL.

**Q.** What about the solubility ([3]; methanol) of the same molecule?
**A.** Its solubility is 88.34 mg/mL.

**Q.** What about the aqueous solubility ([3]; water) of the same molecule?
**A.** Its aqueous solubility is 0.165 mg/mL.

**Q.** Which “sickling inhibition potency over vanillin” value (sickling) does the source give for COc1ccc(OCc2cccc(CO)n2)c(C=O)c1 [TD-7, 2-((6-(hydroxymethyl)pyridin-2-yl)methoxy)-5-methoxybenzaldehyde] here?
**A.** The value was “several fold”.
